Source: PubChem BioAssay (NCI)
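The compound was tested at five concentrations on cells cultured in 96-well plates, with a 48-hour exposure period. Abbreviation: GI50, concentration required for 50% inhibition of growth. Definition used: TGI = concentration required for complete inhibition of growth.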

Tests used:
Experiment in all cases: DTP human tumour cell line panel, 48 h
HCT-116 colon = system: HCT-116 colon
KM20L2 colon = system: KM20L2 colon
CCRF-CEM leukemia = system: CCRF-CEM leukemia
DMS 114 small cell lung = system: DMS 114 small cell lung
HCT-15 colon = system: HCT-15 colon
RPMI-8226 leukemia = system: RPMI-8226 leukemia
CAKI-1 renal = system: CAKI-1 renal
LXFL 529 NSCLC = system: LXFL 529 NSCLC
PC-3 prostate = system: PC-3 prostate
HS 578T breast = system: HS 578T breast
MDA-MB-231 breast = system: MDA-MB-231 breast

Row | SMILES | TGI (HCT-116 colon) [µM] | TGI (KM20L2 colon) [µM] | TGI (CCRF-CEM leukemia) [µM] | TGI (DMS 114 small cell lung) [µM] | TGI (HCT-15 colon) [µM] | TGI (RPMI-8226 leukemia) [µM] | TGI (CAKI-1 renal) [µM] | TGI (LXFL 529 NSCLC) [µM] | GI50 (HCT-116 colon) [µM] | GI50 (CAKI-1 renal) [µM] | GI50 (KM20L2 colon) [µM] | GI50 (HCT-15 colon) [µM] | GI50 (RPMI-8226 leukemia) [µM] | TGI (PC-3 prostate) [µM] | TGI (HS 578T breast) [µM] | TGI (MDA-MB-231 breast) [µM] | GI50 (PC-3 prostate) [µM] | GI50 (HS 578T breast) [µM] | GI50 (CCRF-CEM leukemia) [µM] | GI50 (MDA-MB-231 breast) [µM]
1 | O=C1CCC2CCOc3ccc(O)c1c32 (stereo not drawn) | > 100 | > 100 | > 100 | > 100 | > 100 | > 100 | – | – | – | – | – | – | – | – | – | – | – | – | – | –
2 | N#Cc1nc(Nc2ccc([N+](=O)[O-])cc2)sc1N | > 100 | > 100 | > 100 | – | > 100 | > 59.2 | 56.7 | > 100 | – | – | – | – | – | – | – | – | – | – | – | –
3 | Cc1ccc([Se][Se]c2ccc(C)cc2)cc1 | > 100 | > 100 | 19.7 | 57 | > 100 | 31.8 | > 100 | 31.7 | – | – | – | – | – | – | – | – | – | – | – | –
4 | C1C[OH+]CC[OH+]CC[OH+]CC[OH+]CC[OH+]CC[OH+]1.[Cl-].[Ta+5] | > 100 | > 100 | – | – | > 100 | > 100 | > 100 | – | > 100 | > 100 | > 100 | > 100 | > 100 | – | – | – | – | – | – | –
5 | CC1=C(c2cc(C(=O)Nc3cccc(C(F)(F)F)c3)nc(NC#N)n2)Sc2ccccc2N1 | > 100 | > 100 | > 100 | > 100 | > 100 | > 100 | > 100 | > 100 | – | – | – | – | – | – | – | – | – | – | – | –
6 | O=C(/C=C/c1ccc(Cl)cc1)c1ccncc1 | > 100 | > 100 | > 100 | > 100 | > 100 | > 100 | > 100 | > 100 | – | – | – | – | – | – | – | – | – | – | – | –
7 | O=C1CCC(=O)C12CCc1cccc(O)c12 | – | > 100 | – | > 100 | > 100 | > 100 | > 100 | > 100 | – | – | – | – | – | – | – | – | – | – | – | –
8 | O=C1CC(c2c[nH]c3ccccc23)C(=O)N1c1ccccc1 (stereo not drawn) | > 100 | > 100 | > 100 | – | > 100 | > 100 | > 100 | > 100 | – | – | – | – | – | – | – | – | – | – | – | –
9 | O=C(O/N=C1/CCCC/C1=C\c1ccccc1)c1ccc(Cl)cc1 | > 100 | > 100 | > 100 | – | > 100 | > 100 | > 100 | > 100 | – | – | – | – | – | – | – | – | – | – | – | –
10 | Cc1nc2ccc(NCCN(C)C)c3c(=O)c4cc(O)ccc4n1c23 | 2.22 | – | 2.5 | 2.14 | 2.8 | 6.23 | 3.94 | 11.1 | – | – | – | – | – | 4.86 | 2.77 | 13.2 | – | – | – | –
11 | COC(=O)C(=O)C(C#N)c1ccc(Cl)c(Cl)c1 (stereo not drawn) | > 100 | > 100 | > 100 | – | > 100 | > 100 | > 100 | > 100 | – | – | – | – | – | – | – | – | – | – | – | –
12 | COc1ccc(CCC2NCCc3cc(OC)c(OC)cc32)cc1 (stereo not drawn) | > 100 | > 100 | > 100 | – | > 100 | > 100 | > 100 | > 100 | – | – | – | – | – | – | – | – | – | – | – | –
13 | COc1cccc(C2C(C#N)=C(N)Oc3cc(OC)ccc32)c1 (stereo not drawn) | 12.4 | – | > 45.7 | – | > 100 | 23.7 | > 100 | – | 0.0479 | 0.0493 | – | 0.0366 | 0.0372 | > 94.6 | 10.3 | 1.49 | 0.0373 | 0.0279 | 0.0328 | 0.0519
14 | O=C1C(=O)c2c(nc3ncccn23)-c2ccccc21 | 0.379 | – | 3.45 | – | 0.358 | 0.602 | 1.9 | – | 0.184 | 0.64 | – | 0.166 | 0.198 | 1.34 | 0.631 | 0.67 | 0.32 | 0.244 | 0.328 | 0.215
15 | CC1=N/C(=C\c2cccc3ccccc23)C(=O)O1 | > 100 | > 100 | > 100 | > 100 | > 100 | > 100 | – | > 100 | – | – | – | – | – | – | – | – | – | – | – | –
16 | Cn1cnc([N+](=O)[O-])c1Sc1nnc(C(F)(F)F)n1C | 32.5 | – | 48.4 | > 100 | – | 49.9 | > 100 | 27.8 | – | – | – | – | – | – | – | – | – | – | – | –
17 | CCc1nc(N)nc(N)c1-c1ccc(Cl)c(N=NN(C)C)c1 | > 75.1 | – | > 73.2 | – | > 100 | 49 | > 96.9 | – | – | – | – | – | – | > 100 | > 100 | > 100 | – | – | – | –
18 | CCCCCCCCCC(=O)N[C@H]1CCc2cc(OC)c(OC)c(OC)c2-c2ccc(SC)c(=O)cc21 | 0.0586 | 0.0387 | > 100 | 0.0403 | 0.0901 | – | > 100 | 96.7 | – | 5.27 | – | – | – | – | – | – | – | – | – | –
19 | Clc1ccc(-c2cn(-c3ccccc3)c(-c3ccccc3)n2)c(Cl)c1 | 2.66 | – | > 50 | – | > 50 | > 10.2 | 4.4 | – | 1.09 | 1.2 | – | 2.91 | 4.93 | > 50 | 6.02 | > 50 | 5.43 | 1.27 | 2.51 | 23
